Reference: ChEMBL document CHEMBL1221220, “Transport and signaling via the amino acid binding site of the yeast Gap1 amino acid transceptor” (Nat Chem Biol, 2009)
The source made the active and inactive calls. The calls are words filed in the database; no cut-off is given here. Non-standard residues stand in square brackets, D forms with d. Residues, ends and D or L forms follow the SMILES beside them. *: point of attachment. Hyp = O=C(O)[C@@H]1C[C@@H](O)CN1; NMeL = CN[C@@H](CC(C)C)C(=O)O; βNA = c1ccc2cc(N*)ccc2c1; Boc = CC(C)(C)OC(=O)*; βAla = NCCC(=O)O; Sar = CNCC(=O)O

The compounds below were run against T1, General amino-acid permease GAP1 (Saccharomyces cerevisiae) (UniProt P19145) (assay: Induction of nitrogen-starved wild type sigma1278b yeast Gap1-mediated […] activation at 10 mM). Settings: not given.
T1 sequence (whole entry): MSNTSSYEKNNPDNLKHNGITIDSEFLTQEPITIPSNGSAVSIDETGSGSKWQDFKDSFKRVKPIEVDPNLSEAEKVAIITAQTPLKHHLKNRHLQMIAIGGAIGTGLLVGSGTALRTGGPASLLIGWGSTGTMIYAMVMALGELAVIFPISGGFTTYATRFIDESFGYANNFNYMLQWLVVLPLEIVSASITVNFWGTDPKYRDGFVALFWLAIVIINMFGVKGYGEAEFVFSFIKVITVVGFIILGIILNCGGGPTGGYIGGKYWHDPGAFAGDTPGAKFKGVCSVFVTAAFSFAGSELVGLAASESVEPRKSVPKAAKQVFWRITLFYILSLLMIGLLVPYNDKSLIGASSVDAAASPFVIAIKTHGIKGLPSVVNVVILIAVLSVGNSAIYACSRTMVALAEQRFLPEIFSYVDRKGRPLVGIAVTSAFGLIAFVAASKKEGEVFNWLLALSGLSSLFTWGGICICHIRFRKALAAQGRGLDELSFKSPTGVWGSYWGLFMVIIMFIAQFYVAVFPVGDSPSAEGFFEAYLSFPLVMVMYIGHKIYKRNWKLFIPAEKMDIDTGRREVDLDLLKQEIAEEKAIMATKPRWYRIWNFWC

SMILES	Activity
O=C(O)[C@@H]1CCCN1	Active
N[C@@H](CCC(=O)O)C(=O)O	Active
NCCCC[C@H](N)C(=O)O	inactive
N[C@@H](Cc1c[nH]cn1)C(=O)O	inactive
N[C@@H](CC(=O)O)C(=O)O	Active
N[C@@H](Cc1c[nH]c2ccccc12)C(=O)O	inactive
C[C@@H](O)[C@H](N)C(=O)O	Active
N[C@@H](CO)C(=O)O	Active
N[C@@H](Cc1ccccc1)C(=O)O	Active

The compounds below were run against T1, General amino-acid permease GAP1 (Saccharomyces cerevisiae). Settings: sigma1278b, at 5 mM.
Description: Inhibition of nitrogen-starved wild type sigma1278b yeast Gap1-mediated amino acid uptake at 5 mM after 60 secs relative to L-citrulline

SMILES	inhibition
N[C@@H](Cc1ccccc1)C(=O)NCC(=O)O (H-Phe-Gly-OH)	< 15%
CC(=O)N[C@@H](CCC(=O)OC(C)(C)C)C(=O)O	< 15%
CC(C)C[C@@H](NC(=O)OC(C)(C)C)C(=O)O	< 15%
NCC(=O)NCC(=O)NCCC(=O)O (H-Gly-Gly-[βAla]-OH)	< 15%
N[C@@H](CC(=O)O)C(=O)N[C@@H](CO)C(=O)O (H-Asp-Ser-OH)	< 15%
CC(=O)N1CCC[C@H]1C(=O)N[C@@H](Cc1ccccc1)C(=O)N[C@@H](CCCNC(=N)N)C(=O)O (Ac-Pro-Phe-Arg-OH)	< 15%
CC(C)CC(N)C(=O)NC(CC(C)C)C(=O)O (racemic)	> 30%
CC[C@H](C)[C@H](N)C(=O)N[C@@H](C)C(=O)N1CCC[C@H]1C(=O)O (H-Ile-Ala-Pro-OH)	15%
CSCC[C@H](NC(=O)[C@@H](N)[C@@H](C)O)C(=O)O (H-Thr-Met-OH)	< 15%
CC[C@H](C)[C@H](NC(=O)[C@@H](N)CC(C)C)C(=O)O (H-Leu-Ile-OH)	< 15%
CC[C@H](C)[C@H](NC(=O)OCc1ccccc1)C(=O)O	15%
CC(C)C[C@H](NC(=O)[C@H](CC(C)C)NC(=O)[C@@H](N)CC(=O)O)C(=O)O (H-Asp-Leu-Leu-OH)	15%
NCC(=O)NCC(=O)O (H-Gly-Gly-OH)	< 15%
C[C@H](N)C(=O)NCC(=O)O (racemic)	> 30%
CC(C)C[C@H](NC(=O)CCCN)C(=O)O	< 15%
CSCC[C@H](N)C(=O)NCC(=O)O (H-Met-Gly-OH)	< 15%
CC(C)(C)OC(=O)NCC(=O)N1CCC[C@H]1C(=O)N1CCC[C@H]1C(=O)O (Boc-Gly-Pro-Pro-OH)	< 15%
C[C@H](NC(=O)CN)C(=O)O (H-Gly-Ala-OH)	15%
NCC(=O)N[C@@H](Cc1cnc[nH]1)C(=O)NCC(=O)O (H-Gly-His-Gly-OH)	< 15%
CSCC[C@H](N)C(=O)N[C@@H](C)C(=O)O (H-Met-Ala-OH)	< 15%
CC[C@H](C)[C@H](NC(C)=O)C(=O)O	< 15%
NCCCC(=O)N[C@@H](Cc1cnc[nH]1)C(=O)O	< 15%

SMILES	inhibition
C[C@H](N)C(=O)N[C@@H](CC(N)=O)C(=O)O (H-Ala-Asn-OH)	> 30%
CC(C)(C)OC(=O)N[C@@H](CCCCN)C(=O)O	< 15%
CSCC[C@H](N)C(=O)N[C@@H](C)C(=O)N[C@@H](CO)C(=O)O (H-Met-Ala-Ser-OH)	< 15%
NC(=O)[C@@H](N)CO	< 15%
CC(C)C[C@H](NC(=O)[C@@H](N)CCC(=O)O)C(=O)O (H-Glu-Leu-OH)	< 15%
CN(CC(=O)O)C(=O)CN (H-Gly-[Sar]-OH)	< 15%
CCOC(=O)[C@@H](N)CCSC	< 15%
N[C@@H](Cc1ccc(O)cc1)C(=O)NCC(=O)NCC(=O)O (H-Tyr-Gly-Gly-OH)	< 15%
NCC(=O)NCC(=O)NCC(=O)O	< 15%
C[C@@H](NC(=O)[C@@H](N)CCC(=O)O)C(=O)O	< 15%
CC(C)C[C@H](NC(=O)[C@@H](N)CC(C)C)C(=O)N[C@@H](Cc1cnc[nH]1)C(=O)O (H-Leu-Leu-His-OH)	< 15%
O=C(O)C1CCCCN1 (stereo unspecified)	< 15%
COC(=O)[C@H](CO)NC(=O)OC(C)(C)C	< 15%
CC[C@H](C)[C@H](N)C(N)=O	< 15%
CSCCC(NC(=O)C(C)N)C(=O)O (racemic)	< 15%
N[C@@H](CO)Cc1c[nH]c2ccccc12	< 15%
C[C@H](N)C(=O)NCC(=O)O	> 30%
CN[C@@H](Cc1cnc[nH]1)C(=O)O	< 15%
CC(C)[C@H](N)C(=O)N[C@H](C(=O)N[C@@H](C(=O)O)C(C)C)C(C)C (H-Val-Val-[dV]-OH)	< 15%
CSCC[C@H](NC(=O)[C@@H](N)CCSC)C(=O)O (H-Met-Met-OH)	< 15%
O=C(O)[C@@H]1CCCN1C(=O)[C@@H]1C[C@@H](O)CN1C(=O)[C@@H]1CCCN1 (H-Pro-[Hyp]-Pro-OH)	< 15%
CC(C)C[C@H](N)C(=O)N[C@@H](C)C(=O)O (H-Leu-Ala-OH)	< 15%

SMILES	inhibition
CC(C)(C)OC(=O)N[C@@H](CO)C(=O)O	< 15%
CC(C)C[C@H](N)C(=O)N[C@H](C(=O)O)C(C)C (H-Leu-Val-OH)	< 15%
NC(=O)CC[C@H](NC(=O)[C@@H](N)CO)C(=O)O (H-Ser-Gln-OH)	< 15%
N[C@@H](CO)C(=O)NCC(=O)O (H-Ser-Gly-OH)	< 15%
CC[C@H](C)[C@H](N)C(=O)N[C@@H](CC(C)C)C(=O)N[C@@H](CC(C)C)C(=O)O (H-Ile-Leu-Leu-OH)	> 30%
CSCC[C@H](N)C(=O)N[C@@H](CO)C(=O)O (H-Met-Ser-OH)	< 15%
C[C@H](NC(=O)[C@@H](N)Cc1ccc(O)cc1)C(=O)N[C@@H](CCCNC(=N)N)C(=O)O (H-Tyr-Ala-Arg-OH)	< 15%
CC(C)[C@@H](NC(=O)CN)C(=O)O	< 15%
CN[C@@H](CC(C)C)C(=O)NCC(=O)O (H-[NMeL]-Gly-OH)	< 15%
CC(C)C[C@H](NC(=O)CNC(=O)CN)C(=O)O	< 15%
NCC(=O)NCC(=O)N[C@@H](CC(=O)O)C(=O)O (H-Gly-Gly-Asp-OH)	< 15%
N[C@@H](Cc1ccc(O)cc1)C(=O)N[C@@H](Cc1ccc(O)cc1)C(=O)NCC(=O)O (H-Tyr-Tyr-Gly-OH)	< 15%
CC(C)C[C@H](NC(=O)[C@H](Cc1cnc[nH]1)NC(=O)CN)C(N)=O (H-Gly-His-Leu-NH2)	< 15%
CC(C)C[C@@H](N)C(=O)N[C@H](Cc1ccc(O)cc1)C(=O)O	< 15%
CC(C)C[C@H](NC(=O)[C@@H](N)CC(C)C)C(=O)N[C@@H](CC(=O)O)C(=O)O (H-Leu-Leu-Asp-OH)	> 30%
C[C@@H](O)C(NC(=O)CN)C(=O)O (mixture of isomers)	15%
CSCC[C@H](N)C(=O)NCC(=O)N[C@@H](CC(=O)O)C(=O)O (H-Met-Gly-Asp-OH)	< 15%
CC[C@H](C)[C@H](N)C(=O)N[C@H](C(=O)O)[C@@H](C)CC (H-Ile-Ile-OH)	< 15%
CC[C@H](C)[C@H](NC(=O)CN)C(=O)O (H-Gly-Ile-OH)	< 15%
CC(C)[C@H](N)C(=O)N[C@H](C(=O)O)C(C)C (H-Val-Val-OH)	15%
CC[C@H](C)[C@H](N)C(=O)N[C@@H](CC(C)C)C(=O)O (H-Ile-Leu-OH)	> 30%
CC(C)C[C@H](NC(=O)CN)C(=O)O	< 15%

What follows are compounds tested against T1, General amino-acid permease GAP1 (Saccharomyces cerevisiae) (assay: Competitive inhibition of nitrogen-starved wild type sigma1278b yeast Gap1-mediated amino acid uptake at 5 mM after 60 secs relative to L-citrulline). Settings: not given.

SMILES	inhibition
N[C@@H](CC(=O)O)C(=O)N[C@@H](Cc1ccccc1)C(=O)O (H-Asp-Phe-OH)	> 30%

These compounds were tested against T1, General amino-acid permease GAP1 (Saccharomyces cerevisiae) (assay: Noncompetitive inhibition of nitrogen-starved wild type sigma1278b yeast Gap1-mediated amino acid uptake at 5 mM after 60 secs relative to L-citrulline). Settings: not given.

SMILES	inhibition
CC(C)C[C@H](NC(=O)[C@H](CC(C)C)NC(=O)[C@@H](N)CC(C)C)C(=O)O (H-Leu-Leu-Leu-OH)	15%
CC(C)C[C@H](N)C(=O)N[C@H](CC(C)C)C(=O)O	> 30%
N=C(N)NCCC[C@H](N)C(=O)NCC(=O)NCC(=O)O (H-Arg-Gly-Gly-OH)	> 30%
C[C@H](N)C(=O)NCC(=O)N[C@@H](C)C(=O)O (H-Ala-Gly-Ala-OH)	> 30%
NC(N)=NCCC[C@H](N)C(=O)NCC(=O)O (H-Arg-Gly-OH)	> 30%
C[C@H](NC(=O)[C@H](Cc1ccccc1)NC(=O)[C@@H](N)CCCNC(=N)N)C(=O)O (H-Arg-Phe-Ala-OH)	> 30%
CC(C)C[C@H](NC(=O)[C@H](CC(C)C)NC(=O)CCN)C(=O)O (H-[βAla]-Leu-Leu-OH)	15%
N=C(N)NCCC[C@H](NC(=O)[C@@H](N)CCCNC(=N)N)C(=O)Nc1ccc2ccccc2c1 (H-Arg-Arg-βNA)	> 30%
CSCC[C@H](NC(=O)[C@@H](N)CC(C)C)C(=O)O (H-Leu-Met-OH)	15%
CC(C)C[C@H](NC(=O)[C@@H](NC(=O)[C@@H](N)CC(C)C)C(C)C)C(=O)O (H-Leu-Val-Leu-OH)	15%
CC(C)[C@H](NC(=O)CNC(=O)[C@H](C)N)C(=O)O (H-Ala-Gly-Val-OH)	> 30%
CC(C)C[C@H](NC(=O)[C@H](C)N)C(=O)O (H-Ala-Leu-OH)	> 30%
CC(N)C(=O)NC(Cc1ccccc1)C(=O)O (racemic)	> 30%
CC(C)C[C@H](NC(=O)CCCCN)C(=O)O	> 30%
CC(C)C[C@H](NC(=O)[C@@H](N)CC(C)C)C(=O)N[C@@H](C)C(=O)O (H-Leu-Leu-Ala-OH)	15%
